The series in a line: pH dependent solubility of retigabine. The settings on record: around pH 2 (stomach) versus around pH 7 (lower intestine).

Take `CCOC(=O)Nc1ccc(NCc2ccc(F)cc2)cc1N` [Retigabine]: the pH dependent solubility result is given as “more soluble in the acidic conditions of the stomach (around pH 2) than in the near neutral conditions of the lower intestine (around pH 7)”.

Source of the values: patent publication US20120288544A1, “NOVEL RETIGABINE COMPOSITION” (GLAXO GROUP LIMITED, priority 2010, published 2012).
